Laboratory results reported in ChEMBL document CHEMBL6134856, “Rapid Response Antimicrobial Peptide Design Strategy Driven by Meta-Learning for Emerging Drug-Resistant Pathogens” (J Med Chem, 2025).

Assays:
Acinetobacter baumannii [1] = test: Antimicrobial activity against SAM/CTX/AK/CRO/CN drugs-resistant Acinetobacter baumannii 0004 assessed as inhibition of bacterial growth incubated for approximately 18 hrs by resazurin dye based broth microdilution assay; format: functional
Staphylococcus aureus = test: Antimicrobial activity against Staphylococcus aureus ATCC 25923 assessed as inhibition of bacterial growth incubated for approximately 18 hrs by resazurin dye based broth microdilution assay; format: functional
Candida albicans = test: Antimicrobial activity against Candida albicans ATCC 14053 assessed as inhibition of bacterial growth incubated for approximately 18 hrs by resazurin dye based broth microdilution assay; format: functional
[2] = Hemolytic activity in Sprague-Dawley rat erythrocytes incubated for 1 hr by multifunctional microplate reader analysis; format: toxicity, cell-based, Erythrocyte; details: for HC50 at 1 h: Sprague-Dawley, erythrocytes; for HC5: erythrocyte, 1 h
Acinetobacter baumannii [3] = test: Antimicrobial activity against SAM/CTX/AK/CRO/CN drugs-resistant Acinetobacter baumannii 0101 assessed as inhibition of bacterial growth incubated for approximately 18 hrs by resazurin dye based broth microdilution assay; format: functional
Acinetobacter baumannii [4] = test: Antimicrobial activity against CTX/AK/CRO drugs-resistant Acinetobacter baumannii 0110 assessed as inhibition of bacterial growth incubated for approximately 18 hrs by resazurin dye based broth microdilution assay; format: functional
Acinetobacter baumannii [5] = test: Antimicrobial activity against CTX/CRO/CN drugs-resistant Acinetobacter baumannii 0214 assessed as inhibition of bacterial growth incubated for approximately 18 hrs by resazurin dye based broth microdilution assay; format: functional
Acinetobacter baumannii [6] = test: Antimicrobial activity against SAM/CTX/CRO/CN drugs-resistant Acinetobacter baumannii 0320 assessed as inhibition of bacterial growth incubated for approximately 18 hrs by resazurin dye based broth microdilution assay; format: functional
Acinetobacter baumannii [7] = test: Antimicrobial activity against SAM-resistant Acinetobacter baumannii 0413 assessed as inhibition of bacterial growth incubated for approximately 18 hrs by resazurin dye based broth microdilution assay; format: functional

Row | Substance | MIC (Acinetobacter baumannii [1]) [µM] | MIC (Staphylococcus aureus) [µM] | MIC (Candida albicans) [µM] | HC50 at 1 h [2] [µM] | HC5 [2] [µM] | MIC (Acinetobacter baumannii [3]) [µM] | MIC (Acinetobacter baumannii [4]) [µM] | MIC (Acinetobacter baumannii [5]) [µM] | MIC (Acinetobacter baumannii [6]) [µM] | MIC (Acinetobacter baumannii [7]) [µM]
1 | H-AWKAKLKRLAIAWKR-OH | 4 | > 32 | 8 | > 256 | > 256 | 8 | 8 | 4 | 4 | 4
2 | H-FWKKVFKWIWRVLHNFG-OH | 8 | – | – | 12.6 | 1.28 | – | – | – | – | –
3 | H-GLWKRWKKVLWGAKNKI-OH | 2 | 16 | 8 | > 256 | > 256 | 4 | 4 | 4 | 2 | 2
4 | H-GWAKRLVQRLADWLRKF-OH | 2 | 8 | > 32 | 43.9 | 7.22 | – | – | – | – | –
5 | H-IWLAVWKGLLKRWLH-OH | 2 | 2 | 16 | 10.5 | 1.17 | – | – | – | – | –
6 | H-KIRWLLYWIRRKRL-OH | 16 | – | – | – | – | – | – | – | – | –
7 | H-KLKRWLVWLIRKLW-OH | 16 | – | – | – | – | – | – | – | – | –
8 | H-KRIWRKILWWIKWR-OH | 8 | – | – | – | – | – | – | – | – | –
9 | H-KWARRLVYLIANYWKKR-OH | 2 | > 32 | > 32 | 117 | 14.63 | – | – | – | – | –
10 | H-KWFKKLPKILHKLAKKW-OH | 2 | 2 | > 32 | 294 | 38.67 | 2 | 2 | 4 | 2 | 2
11 | H-KWKIFKRIVGRILRYLR-OH | 4 | 8 | > 32 | 15.7 | 1.47 | – | – | – | – | –
12 | H-LWKILKKIWRVLKNWN-OH | 4 | 8 | 32 | 35.9 | 7.59 | – | – | – | – | –
13 | H-RIRFKWRWWMRIRLKWY-OH | 16 | > 32 | > 32 | > 256 | > 256 | – | – | – | – | –
14 | H-RIWVLIYRWYRKWY-OH | 32 | – | – | – | – | – | – | – | – | –
15 | H-RLIKIWWIYRRKWR-OH | 128 | – | – | – | – | – | – | – | – | –
16 | H-RLWKIWLVWIRWRNQK-OH | 16 | > 32 | > 32 | 330 | 27.41 | – | – | – | – | –
17 | H-RLWKIWWKIWRVLI-OH | 16 | – | – | – | – | – | – | – | – | –
18 | H-RQIKIWFQNRRWGLQLK-OH | 16 | > 32 | > 32 | > 256 | > 256 | 16 | 16 | 16 | 16 | 8
19 | H-RRRLILWILWRRLR-OH | 4 | 8 | > 32 | 166 | 10.09 | – | – | – | – | –
20 | H-RWRKIWFLWRYKIW-OH | 128 | – | – | – | – | – | – | – | – | –
21 | H-VLAANRLVRRLAQKIAR-OH | 32 | > 32 | 16 | > 256 | > 256 | – | – | – | – | –
22 | H-WFKKLLKLALKWAKYA-OH | 4 | 2 | > 32 | 13.1 | 1.46 | – | – | – | – | –
